Values quoted from earlier work, collected in patent US20090004306A1, “Composition for treatment of diabetes and maintaining healthy blood glucose levels” (priority 2007, published 2009).

Experiments:
[1] = Kim study

[Cr] [chromium]
glucose levels and related variables (people with glucose intolerance and type 1, type 2, gestational, and steroid-induced diabetes): improve glucose levels and related variables

chromium picolinate
insulin sensitivity and glycemic control (ample intakes, individuals and diabetics): promote insulin sensitivity in many individuals and improve glycemic control in some diabetics

O=C/C=C/c1ccccc1 [cinnamaledhyde]
hypoglycemic properties / blood glucose level [1]: exhibit hypoglycemic properties
